This passage reports IC50 results from patent publication US20260015352A1, “METHYLTRANSFERASE INHIBITOR AND USE THEREOF” (CYTOSINLAB THERAPEUTICS CO., LTD., priority 2022, published 2026).

pIC50: −log10 of the molar value.

This assay concerns G401 cells. Briefly: G401 ELISA test. The class given is cell-based. Conditions: Homo sapiens, G-401; G401 cells treated with compounds for 72 hours; ELISA detecting K27 and H3; read-out: G401_ELISA IC50. On the procedure: • Plate Reader: Envision (Perkinelmner); plate shaker: IKA MTS 2/4; plate Washer: BioTek microplate wisher 405 select; Cell counter: Counterstar (Ruiyu-biotech); Cell culture incubator: MCO-15AC (ThermoFisher); Pipette: BioHit Multichannel. Pipette: 0.2-10 μL, 10-300 μL, 50-1200 μL; Centrifuge: Thermo Centrifuge ST 40R; Pure water system: Millipore Milli-Q Reference system; Refrigerator: Haier −80 degree, −20 degree, and 4-degree refrigerators; cell cryopreservation box: Mr. Frosty™ Gradient Cooling Box Cat #5100-0001
• McCoys 5A (Modified) culture medium (ATCC); FBS (Gibco); 0.25% Trypsin/EDTA (Gibco); PBS (Hyclone); Penicillin/Streptomycin(100×) (Gibco); DMSO (Sigma); 384 cell culture plate (Corning); 384 detection plate (Greiner); 96 well plate (compound dilution) (Haimen, Qunchao); T75 Cell Culture Bottle (Corning)
G401 cells were seeded in a 384-well cell culture plate and incubated overnight at 37° C. in a 5% CO2 cell culture incubator, after which the cells were treated with compounds of different concentrations for 72 hours. The 384-well cell culture plate was taken out and upside down in a centrifuge to centrifugeat 300 rpm for 1 minute. After centrifugation, the 384-well cell culture plate was washed twice with PBS, added with lysis solution and lysed for 60 minutes. Then neutralization buffer was added for mixing and incubation was continued for 30 minutes. 20 ul (for detecting K27) and 10 ul (for detecting H3) of cell lysate were extracted from the 384-well cell culture plate and transferred to a 384 ELISA detection plate and incubate overnight at 4° C. The next day, the 384 ELISA plate was taken out and washed 5 times with TBST in a microplate washer. Then, the plate was added with a blocking solution and sealed at room temperature for 1 hour. The blocking solution was discarded and the primary antibody was added and then the plate was incubated at room temperature for 1 hour. After incubation, the plate was washed with TBST 5 times in a microplate washer, then added with secondary antibody and incubated at room temperature for 1 hour. After incubation, the plate was washed with TBST 5 times in a microplate washer, and finally added with color developer for color development. The plate was read with Envision plate reader. The obtained data was converted into inhibition rate using the following calculation method: % Inhibition rate=100−100*(compound absorbance−positive control absorbance)/(negative control absorbance−positive control absorbance), and then the inhibition rate data was subjected to curve fitting using the “logarithmic (inhibitor) and reaction-variable slope (four parameters)” model in GraphPad Prism 5 software.
The inhibition rate of the compound was calculated as follows: […]
The compounds of the present invention were tested according to the above experimental method, and some results were shown in Table 3. The test results were classified by A, B, and C, wherein A represents IC50≤0.1 uM; B represents 0.1 uM<IC50≤1 uM; C represents IC50>1 uM
(In general: In an ELISA, binding on a coated surface is turned into a signal by an enzyme label.)
The term pIC50 denotes −log10 of the IC50, conventionally taken in molar units. With `COc1nccc2ccc(Nc3ccc([C@H](C)Nc4ncc(CC(=O)NC5CCCC5OC)cn4)cc3F)nc12` (stereo partly shown) [PA222], the pIC50 is 6.00 to 7.00.
`O=C(Cc1cnc(NCc2ccc(Nc3ccc4cccnc4n3)cc2)nc1)NC1COC1` [PA051]: the pIC50 was less than 6.00.
The same measure for `COc1nccc2ccc(Nc3ccc(CNc4ncc(CNCc5cn[nH]c5)cn4)cc3F)nc12` [PA234]: 6.00 to 7.00.
As for `COc1nccc2ccc(Nc3ccc([C@H](C)Nc4ncc(CN5CCS(=O)(=O)CC5)cn4)cc3F)nc12` [PA194], the pIC50 is no less than 7.00.
The figure for `COc1nccc2ccc(Nc3ccc(CNc4ccc(CC(=O)NC5COC5)nc4)cc3)nc12` [PA082] is less than 6.00; for `COc1nccc2ccc(Nc3ccc(CNc4ncc(CN5CCS(=O)(=O)CC5)cn4)cc3F)nc12` [PA259] it is no less than 7.00.
The figure for `COc1nccc2ccc(Nc3ccc(CNc4ncc(CC(=O)N5CCC56COC6)cn4)cc3F)nc12` [PA215] is 6.00 to 7.00.
With `COc1nccc2ccc(Nc3ccc([C@H](C)Nc4ncc(CNCCS(C)(=O)=O)cn4)cc3F)nc12` [PA260], the pIC50 was no less than 7.00.
The figure for `O=C(Nc1ccc(NCC23CCC(Nc4ccc5ccnc(Cl)c5n4)(CC2)CC3)nc1)NC1COC1` [PA250] is less than 6.00; for `COc1nccc2ccc(Nc3ccc(CNc4ncc(NCc5cnoc5)cn4)cc3F)nc12` [PA208] it is 6.00 to 7.00.
The figure for `O=C(Cc1cnc(NCC23CC(Nc4ccc5ccnc(Cl)c5n4)(C2)C3)nc1)NC1COC1` [PA069] is less than 6.00; for `COc1nccc2ccc(Nc3ccc(CNc4ncc(CNCc5ccon5)cn4)cc3F)nc12` [PA221] it is 6.00 to 7.00.
The same measure for `COc1nccc2ccc(Nc3ccc([C@H](C)Nc4ncc(N(C)C(=O)NC5COC5)cn4)cc3F)nc12` [PA217]: 6.00 to 7.00; for `COc1nccc2ccc(NC34CCC(CNc5ncc(CC(=O)NC6COC6)cn5)(CC3)OC4)nc12` [PA229]: 6.00 to 7.00.
Take `CC(C(=O)NC1COC1)c1cnc(N[C@@H](C)C23CCC(Nc4ccc5ccnc(Cl)c5n4)(CC2)CC3)nc1` (stereo partly drawn) [PA169, 2-(2-(((S)-1-(4-((8-chloro-1,7-naphthyridin-2-yl)amino)bicyclo[2.2.2]octan-1-yl)ethyl)amino)pyrimidin-5-yl)-N-(oxetan-3-yl)propanamide]: the pIC50 was no less than 7.00.
The same measure for `COc1nccc2ccc(Nc3ccc([C@@H](CO)Nc4ncc(CC(=O)NC5COC5)cn4)cc3F)nc12` [PA256]: less than 6.00; for `COc1nccc2ccc(Nc3ccc([C@H](C)Nc4ncc([C@@H](C)C(=O)NC5COC5)cn4)cc3F)nc12` [PA225]: 6.00 to 7.00; for `COc1nccc2ccc(NC34CCC(CNc5ncc(CC(=O)NC6COC6)cn5)(CC3)CC4)nc12` [PA079]: no less than 7.00.
The same measure for `COc1nccc2ccc(Nc3ccc([C@H](C)Nc4ncc(CC(=O)NC5CS(=O)(=O)C5)cn4)cc3F)nc12` [PA212]: 6.00 to 7.00; for `COc1nccc2ccc(Nc3ccc([C@H](C)Nc4ccc(CC(=O)NC5COC5)cn4)cc3F)nc12` [PA233]: 6.00 to 7.00.
The figure for `Cc1ccc2ccc(Nc3ccc([C@H](C)Nc4ncc(CN(CCO)C5CS(=O)(=O)C5)cn4)cc3F)nc2c1Cl` [PA266] is no less than 7.00; for `COc1nccc2ccc(Nc3ccc([C@H](C)Nc4ncc(C(C)C5CCS(=O)(=O)CC5)cn4)cc3F)nc12` (stereo partly shown) [PA262] it is no less than 7.00; for `COc1nccc2ccc(Nc3ccc(CNc4ncc(CN5CCC(O)CC5)cn4)cc3F)nc12` [PA227] it is 6.00 to 7.00.
Regarding `COc1nccc2ccc(Nc3ccc([C@H](C)Nc4ncc(N5CCC(C#N)CC5)cn4)cc3F)nc12` [PA214], the pIC50 was 6.00 to 7.00.
With `COc1nccc2ccc(Nc3ccc([C@@H](C)Nc4ncc(CC(=O)NC5COC5)cn4)cc3)nc12` (single isomer, unassigned) [PA062, 2-(2-((1-(4-((8-methoxy-1,7-naphthyridin-2-yl)amino)phenyl)ethyl)amino)pyrimidin-5-yl) acetic acid N-(oxetan-3-yl) acetamide], the pIC50 is 6.00 to 7.00.
The same measure for `CC(C(=O)N(CCC#N)CCC#N)c1cnc(N[C@@H](C)C23CCC(Nc4ccc5ccnc(Cl)c5n4)(CC2)CC3)nc1` (stereo partly shown) [PA202]: no less than 7.00; for `COc1nccc2ccc(Nc3ccc([C@H](C)Nc4ncc(CCNC5CC(F)(F)C5)cn4)cc3F)nc12` [PA223]: 6.00 to 7.00; for `COc1nccc2ccc(Nc3ccc([C@H](C)Nc4ncc(CNC5CC(C#N)C5)cn4)cc3F)nc12` (stereo partly shown) [PA196]: no less than 7.00.
The figure for `C[C@H](Nc1ncc(CNC2CS(=O)(=O)C2)cn1)C12CCC(Nc3ccc4ccnc(Cl)c4n3)(CC1)CC2` [PA165] is no less than 7.00.
The same measure for `COc1nccc2ccc(NC34CCC(CNc5ncc([C@H](C)C(=O)NC6COC6)cn5)(CC3)CC4)nc12` [PA078]: 6.00 to 7.00.
`COc1nccc2ccc(Nc3ccc(CNc4ncc([C@H](C)C(=O)NC5COC5)cn4)cc3)nc12` (single isomer, unassigned) [PA042, 2-[2-[[4-[(8-methoxy-1,7-naphthyridin-2-yl)amino]phenyl]methylamino]pyrimidin-5-yl]-N-(oxetan-3-yl) propanamide]: the pIC50 is no less than 7.00.
As for `COc1nccc2ccc(Nc3ccc(CNc4ncc(CC(=O)NC5COC5)cn4)c(F)c3)nc12` [PA034], the pIC50 is no less than 7.00.
Regarding `COc1nccc2ccc(Nc3ccc(CNc4ncc(CNCc5cocn5)cn4)cc3F)nc12` [PA239], the pIC50 is 6.00 to 7.00.
The same measure for `COc1nccc2ccc(NC34CCC(C(C)Nc5ncc(CC(=O)NC6COC6)cn5)(CC3)CC4)nc12` (stereo not shown) [PA180]: no less than 7.00.
